Experiments:
Experiment in all cases: relative viability (nuclei count vs DMSO), 5 days (fraction); higher = more cells survive
TGX 221 + Palbociclib = compound: CC1=CN2C(=O)C=C(N=C2C(=C1)C(C)NC3=CC=CC=C3)N4CCOCC4 [TGX 221] + CC(=O)c1c(C)c2cnc(Nc3ccc(N4CCNCC4)cn3)nc2n(C2CCCC2)c1=O [Palbociclib] (partner 0.5 µM)
Summary of the method: (§1)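 Values are medians from duplicate plates. Each reflects relative viability, defined as the nuclei count of treated wells over that of vehicle wells. Lung cancer cell lines in 1536-well plates were pin-tool dosed one day after seeding with one drug alone or with a fixed anchor-drug dose plus five library-drug doses (not always all listed) in √10 steps, then fixed, stained and imaged at 4× after 5 days.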

TGX 221 + Linsitinib = compound: CC1=CN2C(=O)C=C(N=C2C(=C1)C(C)NC3=CC=CC=C3)N4CCOCC4 [TGX 221] + C[C@]1(O)C[C@@H](c2nc(-c3ccc4ccc(-c5ccccc5)nc4c3)c3c(N)nccn32)C1 [Linsitinib] (partner 1 µM)
Summary of the method: as §1

[1] = compound: O=C(CCCCCCNC(=O)c1cnc(N(c2ccccc2)c2ccccc2)nc1)NO [Ricolinostat] + C[C@]1(O)C[C@@H](c2nc(-c3ccc4ccc(-c5ccccc5)nc4c3)c3c(N)nccn32)C1 [Linsitinib] (partner 1 µM)
Summary of the method: as §1

TGX 221 + Vorinostat = compound: CC1=CN2C(=O)C=C(N=C2C(=C1)C(C)NC3=CC=CC=C3)N4CCOCC4 [TGX 221] + O=C(CCCCCCC(=O)Nc1ccccc1)NO [Vorinostat] (partner 1 µM)
Summary of the method: as §1

| Cell Line | relative viability (TGX 221 + Palbociclib; first compound 0.08 µM) | relative viability (TGX 221 + Palbociclib; first compound 0.253 µM) | relative viability (TGX 221 + Palbociclib; first compound 0.8 µM) | relative viability (TGX 221 + Palbociclib; first compound 2.53 µM) | relative viability (TGX 221 + Palbociclib; first compound 8 µM) | relative viability (TGX 221 + Linsitinib; first compound 0.253 µM) | relative viability (TGX 221 + Linsitinib; first compound 0.8 µM) | relative viability (TGX 221 + Linsitinib; first compound 2.53 µM) | relative viability (TGX 221 + Linsitinib; first compound 8 µM) | relative viability ([1]; first compound 0.08 µM) | relative viability ([1]; first compound 0.253 µM) | relative viability ([1]; first compound 0.8 µM) | relative viability ([1]; first compound 2.53 µM) | relative viability (TGX 221 + Vorinostat; first compound 0.08 µM) | relative viability (TGX 221 + Vorinostat; first compound 0.253 µM) | relative viability (TGX 221 + Vorinostat; first compound 0.8 µM) | relative viability (TGX 221 + Vorinostat; first compound 2.53 µM) | relative viability (TGX 221 + Vorinostat; first compound 8 µM) | relative viability (TGX 221 + Linsitinib; first compound 0.08 µM) |
| --- | --- | --- | --- | --- | --- | --- | --- | --- | --- | --- | --- | --- | --- | --- | --- | --- | --- | --- | --- |
| 201T | 0.356 | 0.348 | 0.331 | 0.337 | 0.32 | 0.957 | 0.995 | 0.909 | 0.824 | 0.915 | 0.964 | 0.986 | 0.904 | 1 | 0.956 | 0.902 | 0.927 | 0.879 | – |
| A549 | – | – | – | – | – | 0.451 | 0.391 | 0.432 | 0.456 | – | 0.533 | 0.538 | 0.562 | – | – | – | – | – | 0.491 |
| A-427 | 0.542 | 0.546 | 0.513 | 0.504 | 0.516 | 1.02 | 1.1 | 1.12 | 1.02 | 0.958 | 1.07 | 1.01 | 0.875 | 0.872 | 0.876 | 0.817 | 0.847 | 0.856 | 1.05 |
| ABC-1 | 0.742 | 0.519 | 0.654 | 0.648 | 0.597 | 0.794 | 0.773 | 0.557 | 0.547 | 0.616 | 0.772 | 0.944 | 0.669 | 1.2 | 0.753 | 0.996 | 0.981 | 1.29 | 0.964 |
| BEN | 0.483 | 0.413 | 0.439 | 0.487 | 0.503 | 0.839 | 0.878 | 0.823 | 0.774 | 0.795 | 0.751 | 0.953 | 0.592 | 0.588 | 0.572 | 0.523 | 0.501 | 0.547 | 0.869 |
| CAL-12T | 0.466 | 0.556 | 0.467 | 0.326 | 0.0733 | 0.72 | 0.758 | 0.513 | 0.626 | 0.55 | 0.69 | 0.835 | 0.859 | 0.826 | 0.7 | 0.75 | 0.876 | 0.707 | 0.803 |
| COR-L23 | 0.247 | 0.278 | 0.305 | 0.3 | 0.284 | 0.847 | 0.964 | 0.732 | 0.881 | 0.726 | 0.854 | 0.897 | 0.543 | 0.425 | 0.409 | 0.436 | 0.469 | 0.336 | 0.883 |
| COR-L 105 | 0.417 | 0.4 | 0.332 | 0.473 | 0.41 | 0.828 | 1.02 | 0.537 | 0.554 | 0.761 | 0.92 | 1.1 | 1.11 | 0.906 | 0.884 | 0.869 | 0.726 | 0.82 | 0.986 |
| Calu-6 | – | – | – | – | – | 0.913 | 0.935 | 0.855 | 0.84 | 0.817 | 0.89 | 0.891 | 0.766 | – | – | – | – | – | 0.909 |
| ChaGo-K-1 | 0.853 | 0.835 | 0.916 | 0.921 | 0.935 | – | – | – | – | – | – | – | – | 0.742 | 0.758 | 0.749 | 0.727 | 0.707 | – |
| EBC-1 | – | – | – | – | – | 0.726 | 0.822 | 0.687 | 0.702 | 0.737 | 0.713 | 0.911 | 0.328 | – | – | – | – | – | 0.911 |
| EKVX | 0.313 | 0.418 | 0.358 | 0.329 | 0.299 | 0.851 | 0.727 | 0.715 | 0.637 | – | 1.01 | 0.921 | 1.15 | 0.767 | 0.758 | 0.841 | 0.608 | 0.539 | 0.756 |
| EMC-BAC-2 | 0.493 | 0.492 | 0.51 | 0.547 | 0.439 | 0.72 | 0.737 | 0.743 | 0.692 | 0.731 | 0.78 | 0.832 | 0.885 | 0.414 | 0.461 | 0.426 | 0.493 | 0.424 | 0.814 |
| EPLC-272H | 0.324 | 0.35 | 0.32 | 0.328 | 0.289 | 1.12 | 1.02 | – | 1.24 | – | 0.894 | 1.21 | 0.772 | 0.47 | 0.358 | 0.469 | 0.426 | 0.369 | 0.973 |
| H3255 | 0.312 | 0.342 | 0.331 | 0.29 | 0.321 | 0.847 | 0.892 | 0.912 | 0.859 | 0.78 | 0.879 | 0.878 | 0.854 | 0.779 | 0.823 | 0.816 | 0.782 | 0.845 | 0.841 |
| HARA | 0.264 | 0.28 | 0.268 | 0.232 | 0.246 | 0.853 | 0.883 | 0.766 | 0.754 | 0.813 | 0.902 | 0.886 | 0.81 | 0.508 | 0.475 | 0.575 | 0.517 | 0.471 | 1.05 |
